The values below come from patent US12691101B2, “Compound and method for preventing or treating of respiratory diseases comprising the same as an active ingredient” (YONSEI UNIVERSITY, UNIVERSITY - INDUSTRY FOUNDATION (UIF), priority 2019, dated 2026).

Common to all, as to assay type: cell-based
One experiment has as its target T1, mouse pendrin (mPDS) (Mus musculus, UniProt Q9R155).
T1 construct: expressed in transfected cells; host or cells: CHO-K1
Description: Mouse pendrin-mediated Cl^−/I^− exchange activity in CHO-K1 cells. As for the experimental part: (§1) (A) The inhibition of mouse pendrin (mPDS)-mediated Cl^−/I^− exchange activity by F56 was measured in CHO-K1 cells (mean±S.E., n=5). The indicated concentration of F56 was pretreated for 10 minutes. (B) Summary of dose-response for inhibition of the human pendrin (hPDS)-mediated (closed circle, FIG. (a), C) and mPDS-mediated (open circle) Cl^−/I^− exchange activity. (C-F) Representative traces of intracellular pH in CHO-K1 cells expressing SLC26A3, SLC26A6, SLC26A7 and SLC26A9 were shown. The application of Cl^− free solution induced intracellular alkalization by Cl^−/HCO3^− exchange. The indicated concentration of F56 was pretreated for 10 minutes. (G) the effect of F56 (100 μM) on the CFTR chloride channel activity was measured in FRT cells expressing human CFTR. The CFTR current was activated by 20 μM forskolin and was inhibited by 10 μM CFTRinh-172. (H) The effect of F56 (100 μM) on the AN01 chloride channel activity was measured in FRT cells expressing human AN01. Before 10 minutes prior to AN01 activation by 100 μM ATP, F56 was added. (Right) Peak current summary (mean±S.E., n=3). (I) The effect of F56 on the hERG (Kv11.1) potassium channel activity was measured in HEK293T cells expressing human Kv11.1 (mean±S.E., n=4). […] (J) The effect of F56 on the 5-HT2A channel activity was measured in FRT cells expressing human 5-HT2A (mean±S.E., n=4). […]

The next experiment deals with T2, SLC26A7 (Homo sapiens, UniProt Q8TE54).
T2 construct: expressed in transfected cells; host or cells: CHO-K1
The experiment in a line: Cl^−/HCO3^− exchange in CHO-K1 cells expressing SLC26A7. As for the experimental part:
as §1

For experiment [1], the target named is T3, pendrin (Homo sapiens, UniProt O43511).
T3 construct: endogenous in cells; host or cells: primary HNE and HBE cells, IL-4 treated
Description: Pendrin-mediated Cl^−/HCO3^− exchange in IL-4-treated HNE and HBE cells. How it is done: Chinese hamster ovary (CHO)-K1 cells were maintained in a DMEM medium containing 10% fetal bovine serum (FBS), 100 units/ml penicillin and 100 100 μg/ml streptomycin. CHO-K1 cells were stably transfected with pcDNA3.1 encoding halide sensor YFP-H148Q/I152L/F46L and human wild-type (WT)-pendrin. For distribution of primary culture of human nasal cavity epithelium (HNE) cells, passage-2 cells were seeded into transwell-transparent culture inserts with a pore size of 0.45 μm (Costar Co., Cambridge, MA) at a density of 2×10^5 cells/cm^2. […]
For measurement of Cl^−/HCO3^− exchange activity, intracellular pH (pHi) was measured in WT-pendrin expressing CHO-K1 and HNE cells using pH sensor SNARF5-AM (Molecular Probes). The cells were treated with 5 μM SNARF5-AM for 30 minutes, and then were equipped in a perfusion chamber on the stage of a reverse fluorescence microscope (Nikon, Tokyo, Japan) equipped with a cooled charge-coupled device camera (Zyla sCMOS), image acquisition and analysis software (Meta Imaging Series 7.7). […] SNARF5 fluorescence was recorded at 515±10 nm of the excitation wavelength and 640±10 nm of the emission wavelength, and intracellular pH calibration was performed with a solution including 145 mM KCl, 10 mM HEPES and […] nigericin having a calibrated pH to 6.2-7.6.

The test system of experiment [2] is pendrin. Description: Pendrin protein expression in LPS-treated human alveolar epithelial cells (hAEC). As for the experimental part:
The lung tissue was harvested and dissolved in a homogenization buffer (PRO-PREP™ extraction solution, iNtRON Biotechnology). The sample was centrifuged at 4° C. for 30 minutes at 13000 g. The supernatant protein concentration was determined by BCA analysis (Thermo Fisher Scientific). The same amount of protein was separated by SDS/PAGE and transferred to a nitrocellulose membrane. The membrane was blocked with 5% skim milk in TBS-T (TBS (170-6435, Bio-Rad Laboratories) and 1% Tween-20 (170-6531, Bio-Rad Laboratories) for 1 hours. Then, the membrane was cultured overnight with the primary antibody diluted with 5% skim milk in TBS-T at 4° C. After washing with TBS-T, the blot was cultured with horseradish peroxidase-combined secondary antibody and 5% skim milk in TBS-T at a room temperature for 1 hour, and then developed using Super-Signal West Pico chemiluminescence detection kit. The antibody used in the present invention includes rabbit SLC26A4 (ab98091, abcam), mouse phospho-Iκ (9246, Cell Signaling Technology), mouse Iκ (4814, Cell Signaling Technology), and rabbit α-tubulin (PA5-16891, Cell Signaling Technology). Western blot quantization was performed using ImageJ (Image Processing and Analysis in Java; NIH, USA) software.

T3 sequence (O43511 whole entry): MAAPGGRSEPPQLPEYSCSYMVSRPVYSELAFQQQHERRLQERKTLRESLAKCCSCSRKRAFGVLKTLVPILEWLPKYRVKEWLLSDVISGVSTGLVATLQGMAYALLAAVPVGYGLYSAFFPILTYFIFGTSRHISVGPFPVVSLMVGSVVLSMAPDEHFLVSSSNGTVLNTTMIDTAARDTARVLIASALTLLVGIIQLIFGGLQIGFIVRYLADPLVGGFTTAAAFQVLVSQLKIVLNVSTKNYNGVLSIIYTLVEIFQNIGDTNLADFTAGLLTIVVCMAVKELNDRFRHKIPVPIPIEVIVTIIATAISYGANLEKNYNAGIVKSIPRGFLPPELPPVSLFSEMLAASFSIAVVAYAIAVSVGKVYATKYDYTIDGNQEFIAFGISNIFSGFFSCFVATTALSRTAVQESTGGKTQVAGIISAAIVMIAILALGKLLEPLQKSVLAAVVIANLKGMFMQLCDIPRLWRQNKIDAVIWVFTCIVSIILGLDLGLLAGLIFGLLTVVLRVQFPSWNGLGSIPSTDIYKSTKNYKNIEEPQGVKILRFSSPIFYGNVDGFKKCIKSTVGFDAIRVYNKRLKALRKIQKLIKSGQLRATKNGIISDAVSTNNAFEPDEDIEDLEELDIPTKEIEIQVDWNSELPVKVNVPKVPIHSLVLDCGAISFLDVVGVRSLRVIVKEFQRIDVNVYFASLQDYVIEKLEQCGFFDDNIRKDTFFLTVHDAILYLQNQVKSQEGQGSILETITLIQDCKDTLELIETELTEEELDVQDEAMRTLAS
T1 sequence (Q9R155 whole entry): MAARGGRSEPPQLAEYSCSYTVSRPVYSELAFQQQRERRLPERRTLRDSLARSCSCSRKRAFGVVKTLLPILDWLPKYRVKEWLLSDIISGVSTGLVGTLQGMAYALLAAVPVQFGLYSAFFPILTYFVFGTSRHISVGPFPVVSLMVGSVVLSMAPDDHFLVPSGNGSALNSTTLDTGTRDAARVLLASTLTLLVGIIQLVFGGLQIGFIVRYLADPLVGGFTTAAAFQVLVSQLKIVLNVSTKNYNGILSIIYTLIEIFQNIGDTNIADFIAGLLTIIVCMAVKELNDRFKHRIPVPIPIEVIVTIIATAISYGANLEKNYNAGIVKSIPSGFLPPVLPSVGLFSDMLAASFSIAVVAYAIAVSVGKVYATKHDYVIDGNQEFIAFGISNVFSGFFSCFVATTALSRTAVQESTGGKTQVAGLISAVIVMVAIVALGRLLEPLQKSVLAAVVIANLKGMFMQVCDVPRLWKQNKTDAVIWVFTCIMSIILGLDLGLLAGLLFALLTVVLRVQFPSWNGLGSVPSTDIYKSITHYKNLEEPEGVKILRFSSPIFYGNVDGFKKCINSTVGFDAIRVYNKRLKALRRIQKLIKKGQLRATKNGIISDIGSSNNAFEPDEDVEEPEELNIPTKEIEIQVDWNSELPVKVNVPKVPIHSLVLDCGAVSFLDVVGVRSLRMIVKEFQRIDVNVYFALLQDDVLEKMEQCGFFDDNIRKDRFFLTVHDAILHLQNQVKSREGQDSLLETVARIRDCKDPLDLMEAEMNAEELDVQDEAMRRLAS
T2 sequence (Q8TE54 whole entry, species assumed): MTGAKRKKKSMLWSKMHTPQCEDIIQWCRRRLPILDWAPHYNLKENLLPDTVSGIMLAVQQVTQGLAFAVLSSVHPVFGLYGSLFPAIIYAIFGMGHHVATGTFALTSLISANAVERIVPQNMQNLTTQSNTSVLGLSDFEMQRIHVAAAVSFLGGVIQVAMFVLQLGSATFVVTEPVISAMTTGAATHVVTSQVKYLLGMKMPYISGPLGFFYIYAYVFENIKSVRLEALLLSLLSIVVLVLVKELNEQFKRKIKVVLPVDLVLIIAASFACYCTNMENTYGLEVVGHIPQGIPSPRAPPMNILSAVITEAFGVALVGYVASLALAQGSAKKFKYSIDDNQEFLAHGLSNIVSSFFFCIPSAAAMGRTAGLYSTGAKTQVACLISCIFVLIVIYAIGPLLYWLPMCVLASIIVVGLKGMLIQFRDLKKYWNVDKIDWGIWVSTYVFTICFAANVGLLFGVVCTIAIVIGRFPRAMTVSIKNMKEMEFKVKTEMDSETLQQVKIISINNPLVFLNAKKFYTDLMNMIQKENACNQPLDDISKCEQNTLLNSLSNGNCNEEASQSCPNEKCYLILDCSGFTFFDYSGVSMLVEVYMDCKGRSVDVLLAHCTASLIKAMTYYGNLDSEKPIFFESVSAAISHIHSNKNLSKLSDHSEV

Take `CC(C)(C)c1ccc(C2=NC(=Cc3cccs3)C(=O)O2)cc1` [F56, 2-(4-(tert-butyl)phenyl)-4-(thiophen-2-ylmethylene)oxazol-5(4H)-one]: the “inhibition of mouse versus human pendrin-mediated exchange” value on mouse pendrin (mPDS) is given as “almost the same efficacy”. On SLC26A7, the “effect on SLC26A7 Cl^−/HCO3^− exchange” value was “did not affect”. On pendrin [1] (IL-4-treated HNE and HBE cells, acute treatment), the “inhibition of pendrin-mediated Cl^−/HCO3^− exchange activity” value is given as “potentially inhibited”. Besides, the “IL-4-induced upregulation of the Cl^−/HCO3^− exchange activity” value at pendrin [1] (long-term treatment, HNE cells) is “strongly reduced”. Besides, the “protein expression level of pendrin” value in the experiment with pendrin [2] is given as “reduced”.
